“And” between values parts separate entries of the source, which are not always exact repeats. Equal values may be shown once.
Conditions: Fluid (supercritical or subcritical phases), Coaxial cylinder method

CCCCCC [hexane]
thermal conductivity
Conditions	510.36 K	511.55 K
900 kPa	–	0.03854 W/m/K
1000 kPa	–	0.03823 W/m/K
1100 kPa	–	0.03832 W/m/K
1200 kPa	–	0.03859 W/m/K
1300 kPa	–	0.03877 W/m/K
1400 kPa	–	0.03895 W/m/K
1500 kPa	–	0.03914 W/m/K
1600 kPa	–	0.03932 W/m/K
1700 kPa	–	0.0397 W/m/K
1800 kPa	–	0.04008 W/m/K
1900 kPa	–	0.04047 W/m/K
2000 kPa	–	0.04087 W/m/K
2100 kPa	–	0.04127 W/m/K
2200 kPa	–	0.0419 W/m/K
2300 kPa	–	0.04254 W/m/K
2400 kPa	–	0.04342 W/m/K
2462 kPa	–	0.04388 W/m/K
2466 kPa	–	0.04388 W/m/K
2500 kPa	–	0.04434 W/m/K
2600 kPa	–	0.0453 W/m/K
2700 kPa	–	0.04656 W/m/K
2800 kPa	–	0.04846 W/m/K
2900 kPa	–	0.05075 W/m/K
2973 kPa	–	0.05292 W/m/K
2988 kPa	–	0.05356 W/m/K
3050 kPa	–	0.05558 W/m/K
3065 kPa	–	0.05634 W/m/K
3084 kPa	–	0.05785 W/m/K
3096 kPa	–	0.05908 W/m/K
3103 kPa	–	0.05968 W/m/K
3110 kPa	–	0.06064 W/m/K
3116 kPa	–	0.06128 W/m/K
3130 kPa	–	0.06341 W/m/K
3140 kPa	–	0.06508 W/m/K
3145 kPa	–	0.06587 W/m/K
3150 kPa	–	0.06678 W/m/K
3155 kPa	–	0.06787 W/m/K
3160 kPa	–	0.06879 W/m/K
3165 kPa	–	0.0699 W/m/K
3168 kPa	–	0.07058 W/m/K
3170 kPa	–	0.07104 W/m/K
3173 kPa	–	0.0718 W/m/K
3175 kPa	–	0.07228 W/m/K
3180 kPa	–	0.07336 W/m/K
3183 kPa	–	0.07404 W/m/K
3185 kPa	–	0.07447 W/m/K
3187 kPa	–	0.07504 W/m/K
3190 kPa	–	0.07571 W/m/K
3192 kPa	–	0.07616 W/m/K
3193 kPa	–	0.07629 W/m/K
3195 kPa	–	0.07668 W/m/K
3200 kPa	–	0.07761 W/m/K
3205 kPa	–	0.07821 W/m/K
3212 kPa	–	0.07869 W/m/K
3220 kPa	–	0.07869 W/m/K
3225 kPa	–	0.07855 W/m/K
3230 kPa	0.07155 W/m/K	0.07767 W/m/K
3232 kPa	0.07138 W/m/K	–
3234 kPa	0.07128 W/m/K	–
3235 kPa	–	0.07701 W/m/K
3236 kPa	0.07122 W/m/K	–
3238 kPa	0.07122 W/m/K	–
3240 kPa	–	0.07636 W/m/K
3242 kPa	0.07105 W/m/K	–
3245 kPa	0.07105 W/m/K	0.07571 W/m/K
3248 kPa	0.07105 W/m/K	–
3250 kPa	0.07072 W/m/K	0.07508 W/m/K
3252 kPa	0.07072 W/m/K	–
3254 kPa	0.07072 W/m/K	–
3255 kPa	–	0.07386 W/m/K
3256 kPa	0.07039 W/m/K	–
3258 kPa	0.07039 W/m/K	–
3260 kPa	0.07039 W/m/K	0.07266 W/m/K
3265 kPa	0.0704 W/m/K	0.07151 W/m/K
3270 kPa	0.07008 W/m/K	0.07151 W/m/K
3275 kPa	–	0.07209 W/m/K
3280 kPa	0.06975 W/m/K	0.07209 W/m/K
3285 kPa	–	0.07209 W/m/K
3290 kPa	0.0696 W/m/K	0.07267 W/m/K
3295 kPa	–	0.07267 W/m/K
3300 kPa	0.06944 W/m/K	0.07151 W/m/K
3305 kPa	–	0.07151 W/m/K
3310 kPa	0.06944 W/m/K	0.07151 W/m/K
3315 kPa	–	0.07095 W/m/K
3320 kPa	0.06912 W/m/K	–
3325 kPa	–	0.07095 W/m/K
3330 kPa	–	0.07095 W/m/K
3335 kPa	–	0.07144 W/m/K
3340 kPa	0.06881 W/m/K	0.07144 W/m/K
3345 kPa	–	0.07144 W/m/K
3350 kPa	0.0685 W/m/K	0.07144 W/m/K
3360 kPa	0.0685 W/m/K	0.07088 W/m/K
3365 kPa	–	0.07088 W/m/K
3370 kPa	0.0685 W/m/K	0.07033 W/m/K
3375 kPa	–	0.07033 W/m/K
3380 kPa	0.0685 W/m/K	–
3385 kPa	–	0.07033 W/m/K
3392 kPa	0.06834 W/m/K	–
3395 kPa	–	0.07033 W/m/K
3400 kPa	–	0.07033 W/m/K
3410 kPa	–	0.07088 W/m/K
3450 kPa	0.06819 W/m/K	0.07081 W/m/K
3455 kPa	–	0.07081 W/m/K
3460 kPa	–	0.07062 W/m/K and 0.07064 W/m/K
3470 kPa	–	0.07062 W/m/K
3480 kPa	–	0.07051 W/m/K
3490 kPa	–	0.07054 W/m/K
3500 kPa	0.0685 W/m/K	0.07026 W/m/K
3520 kPa	0.0686 W/m/K	–
3540 kPa	0.0686 W/m/K	–
3550 kPa	–	0.0701 W/m/K
3560 kPa	0.0686 W/m/K	–
3580 kPa	0.0686 W/m/K	–
3600 kPa	0.06851 W/m/K	0.07 W/m/K
3620 kPa	0.06851 W/m/K	–
3640 kPa	0.06854 W/m/K	–
3650 kPa	0.06857 W/m/K	0.06992 W/m/K
3670 kPa	0.0686 W/m/K	–
3680 kPa	0.06861 W/m/K	–
3700 kPa	0.06864 W/m/K	0.06992 W/m/K
3720 kPa	0.06873 W/m/K	–
3740 kPa	0.06883 W/m/K	–
3750 kPa	0.06886 W/m/K	0.06969 W/m/K
3800 kPa	0.06913 W/m/K	0.06964 W/m/K
3810 kPa	0.06917 W/m/K	–
3820 kPa	0.06922 W/m/K	–
3830 kPa	0.06922 W/m/K	–
3840 kPa	0.06919 W/m/K	–
3850 kPa	–	0.06975 W/m/K
3860 kPa	0.06928 W/m/K	–
3900 kPa	–	0.06992 W/m/K
3950 kPa	–	0.06992 W/m/K
3970 kPa	0.06973 W/m/K	–
3980 kPa	0.06964 W/m/K	–
4000 kPa	–	0.06992 W/m/K
4010 kPa	0.06977 W/m/K	–
4100 kPa	–	0.07009 W/m/K
4150 kPa	–	0.07009 W/m/K
4300 kPa	–	0.0702 W/m/K
4400 kPa	–	0.07048 W/m/K
4500 kPa	–	0.07048 W/m/K
4600 kPa	–	0.07077 W/m/K
4700 kPa	–	0.07105 W/m/K
4800 kPa	–	0.07105 W/m/K

Reference: the NIST ThermoML archive (doi:10.1016/j.fluid.2018.10.006)
